Test results: PMC9880438, “Pharmacokinetics of active compounds of a Terminalia chebula Retz. Ethanolic extract after oral administration rats using UPLC-MS/MS” (Frontiers in Pharmacology, 2023)
Where two headings read alike, the source gives them in different places.

Legend:
[1] = Stability of QC samples of the analytes in rat plasma under storage conditions; assay type: physicochemical; details: n = 6
Description: Preparation of quality control (QC) samples with three concentrations (low, medium, and high) of 16, 160, and 3,200 ng/ml for ellagic acid; 1.6, 16, 320 ng/ml for protocatechuic acid, ethyl gallate and 1,2,3,4,6-O-pentagalloylglucose; 40, 400 and 8,000 ng/ml for chebulic acid, gallic acid, corilagin and chebulinic acid and 160, 1,600, 32000 ng/ml for chebulagic acid. Both QC samples and stock solutions were stored in a refrigerator at 4°C.
Under variable treatment conditions: stored for 12 h at auto-sampler, for 4 hours at room temperature, under three freeze-thaw cycles, and kept at −80°C for 7 days, quality control samples were analyzed to assess the stability of the nine analytes in plasma.

[2] = set-up: method as in Mishra et al., 2013; details: dose of 40 mg/kg; ref Mishra et al., 2013; cited from earlier work
[3] = Pharmacokinetic study in rats after oral administration of TC extracts (UPLC-MS/MS of plasma); details: male, Sprague-Dawley, rat, plasma, po, 10 g/kg
Description: (§1) UPLC-MS/MS system was used for analysis and monitoring, which consisted primarily of an Agilent 1290 UPLC system (Agilent Technologies, Germany) and an Agilent 6,470 series triple quad (TQ) mass spectrometer (MS) (Agilent Technologies, Singapore) equipped with an electrospray ionization source.
(§2) Separation was carried out on an ACQUITY UPLC® HSS T3 column (2.1 × 100 mm, 1.8 μm), and temperature in the column was kept at 20°C. In the mobile phase, 0.1% formic acid in water and acetonitrile were used as solvents A and B, respectively. Gradient elution was performed as follows: 1%–5% B at 0–3 min; 5%–30% B at 3–4 min; 30%–40% B at 4–8 min; 40%–100% B at 8–9 min; 100%–100% B at 9–12 min. The flow rate was set at 0.3 ml/min and the injection volume was 10 μL.
(§3) Multiple reaction monitoring (MRM) was used for quantitative analysis in negative (−) ionization mode. The mass spectrometric parameters were set as follows: drying gas (N2) temperature was 300°C; gas (N2) flow rate was 7 L/min; atomizer pressure was 35 psi; sheath gas flow was 11 L/min and capillary voltage was 3800 V. The specific mass spectrometric parameters of the precursor ion, product ion, fragmentor, collision energy, and ion modes of the nine compounds and IS are shown in Table 1.
(§4) The plasma sample (100 μl) was sequentially spiked with 20 μl IS solutions (caffeic acid, 1,000 ng/ml); 20 μL methanol, and 10 μl formic acid, then vortex-mixed for 1 min. The mixture was precipitated protein with 1,000 μl methanol by vortex mixing for 3 min. The supernatant was collected into a 1.5 ml clean centrifuge tube after centrifugation at for 10 min 14,000 rpm, and evaporated under a nitrogen stream until dry. After that, the residue was redissolved in 100 μl methanol, vortex-mixed for 3 min, then centrifuged for 10 min at 14,000 rpm. 10 μl analyte was injected into the UPLC-MS/MS system.
(§5) In this study, six of male rats were used, given free access to water, and fasted for 12 h before the experimental period. The TC extracts were dissolved in 0.5% CMC-Na aqueous solution as a suspension at a concentration of 1 g/ml. A dose of 10 g/kg of the suspension was administered to the rats orally, the blood samples of approximately 300 μL were drawn from the fundus venous plexus of rats pre- and post-oral administration at 0.00, 0.08, 0.17, 0.25, 0.50, 0.75, 1, 2, 4, 6, 8, 10, 12, 24, 36, 48, 60, 72, 84, 96, 120, 144 and 168 h, respectively. For analysis, the plasma supernatants collected from the centrifuged plasma were frozen at −80°C after centrifugation for 10 min at 6,000 rpm.
(§6) Data were expressed as mean ± standard deviation (mean ± SD). MassHunter Workstation software (version B.09.00) was quantitatively used to calculate the plasma concentrations of nine analytes. To evaluate the specific pharmacokinetic parameters, DAS Software (DAS 3.0, Medical College of Wannan, China) was used to process the pharmacokinetic results.

[4] = rat, in vivo, po
Description: as §1, §2, §3, §4, §5, §6

in vivo = details: male, Sprague-Dawley, rat, po, 10 g/kg
Description: as §1, §2, §3, §4, §5, §6

[5] = spiked 40 ng/mL, autosampler for 12 h
[6] = spiked 40 ng/mL, room temperature for 4 h
[7] = spiked 40 ng/mL, three freeze-thaw cycles
[8] = spiked 40 ng/mL, −80°C for 7 days
[9] = spiked 400 ng/mL, autosampler for 12 h
[10] = spiked 400 ng/mL, room temperature for 4 h
[11] = spiked 400 ng/mL, three freeze-thaw cycles
[12] = spiked 400 ng/mL, −80°C for 7 days
[13] = spiked 8,000 ng/mL, autosampler for 12 h
[14] = spiked 8,000 ng/mL, room temperature for 4 h
[15] = spiked 8,000 ng/mL, three freeze-thaw cycles
[16] = spiked 8,000 ng/mL, −80°C for 7 days

Compound | Measured concentration after storage [1, 5] [ng/mL] | Measured concentration after storage [1, 6] [ng/mL] | Measured concentration after storage [1, 7] [ng/mL] | Measured concentration after storage [1, 8] [ng/mL] | Measured concentration after storage [1, 9] [ng/mL] | Measured concentration after storage [1, 10] [ng/mL] | Measured concentration after storage [1, 11] [ng/mL] | Measured concentration after storage [1, 12] [ng/mL] | Measured concentration after storage [1, 13] | Measured concentration after storage [1, 14] | Measured concentration after storage [1, 15] | Measured concentration after storage [1, 16] | also measured
O=C(O)C[C@@H]1C(=O)O[C@H]2[C@H](OC(=O)c3cc(O)c(O)c(O)c3)[C@@H](OC(=O)c3cc(O)c(O)c4c3[C@H]1[C@H](O)C(=O)O4)[C@H](OC(=O)c1cc(O)c(O)c(O)c1)O[C@@H]2COC(=O)c1cc(O)c(O)c(O)c1 [Chebulinic acid, chebulinic acid] | 42.2 ± 5.1 | 36.8 ± 3.9 | 41.8 ± 2.3 | 47.1 ± 1.6 | 359.7 ± 18.1 | 414.3 ± 21.9 | 378.1 ± 29.2 | 373.5 ± 23.6 | 7,174.2 ± 321.2 ng/mL | 8,592.3 ± 543.8 ng/mL | 8,447.4 ± 574.6 ng/mL | 8,787.4 ± 801 ng/mL | Anti-gastric ulcer effect [2]: good anti-gastric ulcer effect; AUC [3]: 38200 ± 16300 ng·h/mL; AUC(0-inf) [3]: 41900 ± 15800 ng·h/mL; Cmax [3]: 853 ± 433 ng/mL; MRT [3]: 58.2 ± 5.63 h; MRT inf [3]: 76 ± 15.3 h; Tmax [3]: 1.83 ± 0.41 h; half-life [3]: 43.3 ± 13.2 h
O=C(O)c1cc(O)c(O)c(O)c1 [Gallic acid, gallic acid] | 34.9 ± 5.1 | 35.5 ± 1.0 | 41.0 ± 2.8 | 41.2 ± 0.8 | 431.7 ± 27.3 | 385 ± 36.1 | 393.9 ± 35.3 | 358.6 ± 21.8 | 8,051.6 ± 602.3 ng/mL | 8,051.2 ± 472.7 ng/mL | 8,222.3 ± 456.3 ng/mL | 8,304.7 ± 418.5 ng/mL | T1/2 ([4]; male, Sprague-Dawley): 2.06 h; AUC (in vivo): 16000 ng·h/mL; AUC(0-inf) (in vivo): 16000 ng·h/mL; Cmax (in vivo): 2230 ng/mL; MRT (in vivo): 6.58 ± 1.07 h; MRT inf (in vivo): 6.58 ± 1.07 h; Tmax (in vivo): 1.17 ± 0.41 h; half-life (in vivo): 1.51 ± 0.43 h
O=C(O)C[C@H](C(=O)O)[C@H]1c2c(cc(O)c(O)c2O)C(=O)O[C@@H]1C(=O)O [Chebulic acid, chebulic acid] | 35.6 ± 3.9 | 39.9 ± 1.9 | 40.1 ± 3.3 | 37.5 ± 2.1 | 393.3 ± 52.6 | 395.7 ± 29.7 | 398.4 ± 12.2 | 364.4 ± 17.5 | 8,230.9 ± 726.4 ng/mL | 7,996.4 ± 517.7 ng/mL | 7,691 ± 316.7 ng/mL | 6,878.6 ± 535.3 ng/mL | T1/2 [4]: 1.51 h; AUC (0-tn) ([4]; 10 g/kg): 29045.30 ± 4,395.44 h·ng/mL; AUC (0-∞) ([4]; 10 g/kg): 34069.03 ± 6,641.84 h·ng/mL; Cmax ([4]; 10 g/kg): 1927.06 ± 572.23 ng/mL; MRT (0-tn) ([4]; 10 g/kg): 33.56 ± 3.77 h; MRT (0-∞) ([4]; 10 g/kg): 77.92 ± 22.14 h; T1/2 ([4]; 10 g/kg): 6.60 ± 4.36 h; Tmax ([4]; 10 g/kg): 1.67 ± 0.52 h
